{"source": "paper PMC5823406", "about": "“Vehicle development, pharmacokinetics and toxicity of the anti-invasive agent 4-fluoro-3’,4’,5’-trimethoxychalcone in rodents” (PLoS ONE, 2018)", "key": {"[1]": {"experiment": "Stability and homogeneity of C16 dispersion in Medigel Sucralose", "format": "physicochemical", "conditions": "for Peak ratio C16/IS relative to first time point, Average of three wavelengths: Medigel Sucralose 235.29 mg/cup, 1.64% DMSO", "procedure": "A pre-weighed amount of C16 was dissolved in 1 mL of DMSO and the resulting solution was delivered into a cup of Medigel sucralose (pre-warmed to room temperature) with a syringe through the foil lid. In order to facilitate even distribution of C16 in the gel, the injection was spread over several points. The resulting suspension of C16 in gel was dispersed evenly by vigorous shaking for at least two minutes. Visual control confirmed a uniform and finely dispersed suspension of C16 particles in the gel. The final DMSO concentration in the gel was 1.64%. […]\nA.B. Vehicle development for repeated high-dose PO administration of C16 b. Stability test of the 300 mg/kg preparation of C16 in Medigel Sucralose at room temperature The 300 mg/kg preparation refers to a cup containing 235.29 mg of C16 and 1.64% DMSO (see Materials and Methods section of main text). Sampling took place for a solvent control cup (containing only 1.64% DMSO) , and for the medicated cup at 0.17, 5.33, 55, 102 and 144 h post preparation. Samples of 1 mL were withdrawn with syringe and needle through the lid, and mixed with 1 mL of acetonitrile. The supernatant of the resulting suspension was filtered through a Whatman 0.2 µm PTFE syringe filter and analyzed using HPLC -MS.\nInstrument: Agilent 1200 series HPLC system\nColumn: Ascentis Express C18 column 2.7 µm (30 x 4.6 mm)\nMobile phase A: Water (H2O) + 5 mM NH4OAc\nMobile phase B: Acetonitrile\nColumn Temperature: 40 °C\nUV Detector: Diode array detector, 190 – 400 nm\nTable B. Stability of C16 in Medigel Sucralose: g radient program .\nTime (min) Flow rate (mL/min) A (%) B (%)\nMass spectrometer conditions\nInstrument: Agilent 1100 series VL mass spectrometer\nIonization mode: API-ES, positive ions\nMain derivative: Z-isomer of C16\nRetention time : 3.34 min\nTable C. Stability of C16 in Medigel Sucralose: evolution of peak areas of IS, C16 and its Z-isomer in time for three wavelengths. […]\ntime IS peak C16 Z- Ratio IS peak C16 Z- Ratio IS peak C16 Z- Ratio\n(h) area peak isomer (C16/IS area peak isomer (C16/IS area peak isomer (C16/IS (mAU.s) area peak peak (mAU.s) area peak peak (mAU.s) area peak peak\n(mAU.s) area area) (mAU.s) area area) (mAU.s) area area)\nPeak ratios for stability assessment\nPeak ratios for C16/IS, relative to the first time point, were calculated for three wavelengths (Table D).\nTable D. Stability of C16 in Medigel Sucralose: peak ratios for C16/IS, relative to first time point, for three wavelengths.\nPeak ratios for homogeneity assessment of a 300 mg/kg C16-doped gel\nThe 300 mg/kg preparation refers to a cup containing 235.29 mg of C16 and 1.64% DMSO. After preparation (see ‘Materials and Methods’ section of main text), the gel was sampled through the lid at five sites (Fig A).\nFig A. Sampling of C16-doped Medigel Sucralose.\nThe samples were analyzed according to the method described above for the stability test of C16 in Medigel Sucralose […]\nTable E. Peak areas of IS, C16 and its Z-isomer at five sampling sites for three wavelengths. […]\nsites IS peak C16 peak Ratio IS peak C16 peak Ratio IS peak C16 peak Ratio area area (C16/IS area area (C16/IS area area (C16/IS\n(mAU.s) (mAU.s) peak area) (mAU.s) (mAU.s) peak area) (mAU.s) (mAU.s) peak area) […]\nIndividual plasma concentrations for C16 are shown in Table F and Table G. All data are expressed as ng/mL of the free drug. Samples that were below the limit of quantitation were not used in the calculation of averages. Plasma concentrations versus time data are plotted in Fig B and Fig C. Measured dosing concentrations were used in all pharmacokinetic calculations.\n(1 picture or pasted object on this page, not shown here)"}, "[2]": {"experiment": "Protein binding and recovery", "format": "in vitro ADME", "conditions": "Human plasma"}, "[3]": {"experiment": "Half-life in PBS, simulated gastric fluid and simulated intestinal fluid", "format": "physicochemical", "conditions": "1 μM", "text": "(§1) Table 3 In vitro physicochemical, stability and metabolism data. | column: Value"}, "CYP 1A2": {"biological_target": "T1, CYP 1A2 (Homo sapiens, UniProt P05177)", "T1 sequence (P05177 1-516)": "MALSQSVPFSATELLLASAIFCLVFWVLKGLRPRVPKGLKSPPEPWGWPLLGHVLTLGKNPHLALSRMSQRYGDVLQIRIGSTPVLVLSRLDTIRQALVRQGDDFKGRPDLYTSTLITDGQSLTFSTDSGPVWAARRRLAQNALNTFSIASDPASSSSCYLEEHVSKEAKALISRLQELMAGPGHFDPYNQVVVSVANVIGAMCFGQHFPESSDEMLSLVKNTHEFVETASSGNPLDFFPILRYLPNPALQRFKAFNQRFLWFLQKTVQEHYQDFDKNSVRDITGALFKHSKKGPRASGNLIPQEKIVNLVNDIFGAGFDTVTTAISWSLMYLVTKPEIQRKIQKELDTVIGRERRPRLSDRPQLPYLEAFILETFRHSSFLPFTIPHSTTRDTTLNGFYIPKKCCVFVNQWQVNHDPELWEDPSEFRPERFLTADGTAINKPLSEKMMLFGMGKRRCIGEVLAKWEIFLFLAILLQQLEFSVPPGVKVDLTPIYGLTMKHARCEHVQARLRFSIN", "experiment": "CYP inhibition 1A2 (CEC substrate)", "format": "in vitro ADME", "conditions": "10 μM", "text": "as §1"}, "Blood partitioning": {"experiment": "Blood partitioning", "format": "in vitro ADME", "conditions": "rat, Sprague-Dawley, authors call the ratio not accurate"}}}
{"smiles": "COc1cc(C(=O)/C=C/c2ccc(F)cc2)cc(OC)c1OC", "note": "[C16, 4-fluoro-3’,4’,5’-trimethoxychalcone]", "values": [{"measurement": "Peak ratio C16/IS relative to first time point, Average of three wavelengths", "setting": "[1]; room temperature, 5.3 h", "value": 90.3}, {"measurement": "Peak ratio C16/IS relative to first time point, Average of three wavelengths", "setting": "[1]; room temperature, 55 h", "value": 95.0}, {"measurement": "Peak ratio C16/IS relative to first time point, Average of three wavelengths", "setting": "[1]; room temperature, 102 h", "value": 96.9}, {"measurement": "Peak ratio C16/IS relative to first time point, Average of three wavelengths", "setting": "[1]; room temperature, 144 h", "value": 85.8}, {"measurement": "Distribution of compound in Medigel Sucralose", "setting": "[1]; five sampling sites", "value": "uniformly distributed"}, {"measurement": "Stability of suspension in Medigel Sucralose", "setting": "[1]; room temperature, over 144 h", "value": "stable"}, {"measurement": "fraction unbound at 100 μM", "setting": "[2]", "value": 0.01}, {"measurement": "recovery at 100 μM", "setting": "[2]", "value": 90, "unit": "%"}, {"measurement": "half-life", "setting": "[3]; PBS, pH 7.4", "value": ">4", "unit": "h"}, {"measurement": "half-life", "setting": "[3]; simulated gastric fluid", "value": ">1", "unit": "h"}, {"measurement": "half-life", "setting": "[3]; simulated intestinal fluid", "value": ">4", "unit": "h"}, {"measurement": "CYP inhibition 1A2 (CEC substrate)", "setting": "CYP 1A2", "value": "36 % inhibition of control"}, {"measurement": "blood plasma ratio at 1 μM", "setting": "Blood partitioning", "value": 9.2}]}
